The term Papp A→B denotes how fast a substance crosses the layer from the apical side. A high value points to fast passage. As a reminder, the Papp B→A is the apparent permeability from the basolateral to the apical side of a cell layer. One may read the AUC(0-inf) as the area under the concentration-time curve extrapolated to infinity. For orientation: AUC(0-t) means the area under the concentration-time curve up to a stated or last time point. What is called Cmax is the peak of the concentration-time curve. By Tmax is commonly meant the time at which the peak concentration occurs.

Data on 6 molecules can be found in publication PMC5028351, “Natural flavonoids silymarin and quercetin improve the brain distribution of co-administered P-gp substrate drugs” (SpringerPlus, 2016).

In data set [1] the target is T1, P-gp (Homo sapiens, UniProt P08183). To be noted: digoxin 10 µM alone.
Method: (§1) Caco-2 cells were seeded in transwell poly carbonate inserts (6 well, 0.4 µm pore size, Corning co-star Co.) at 70,000 cells per insert on the day of seeding. Cells were cultured in DMEM supplemented with 10 % fetal bovine serum and 1 % non essential amino acids (Gibco). All the cells were incubated at 37 °C in a humidified atmosphere with 5 % CO2 and 95 % air. For uptake studies, Caco-2 cells were seeded on to 0.7 cm^2 dishes at a density of approximately 70,000 cells per dish and used for experiment.
In data set [2] the target is T1, P-gp. The data set is described as follows: in vitro. Conditions: Caco-2.
Method: as §1
The next data set concerns Caco-2. Conditions: ref Collett et al. 2004; cited from earlier work.
Data set [3] concerns P-gp. The data set is described as follows: In vivo P-gp inhibition study: plasma and brain pharmacokinetics of i.v. quinidine in mice with and without inhibitor pre-treatment. To be noted: for Effect of pre-treatment on plasma profile of quinidine: quinidine 5 mg/kg i.v., inhibitor i.v. 0.5 h pre-treatment; for AUC(0-inf) / AUC(0-t) / Cmax / Tmax: male, C57, mouse, iv, 5 mg/kg. Here is the method:
Male C57 mice weighing 30–35 g and of 6–8 weeks old were taken and the animal experiments were conducted in the animal research facility of Syngene International limited, Bengaluru, India. […] Animal study protocols were approved by the Syngene International organisational animal ethics committee, Bengaluru, India.
Dose volumes (5 mL/kg) of drugs were administered by i.v. route via tail vein injection. […]
Mice were divided into three groups (n = 3–4). […] Blood and brain samples were collected at 0.5, 1, 3, 5 and 7 h post dose of probe substrate. Blood was collected from mice under mild anaesthesia via tail vein and collected blood was centrifuged at 5000 rpm to separate plasma.
After sacrificing the mice at different time points, brain was collected homogenised at 5× concentration with phosphate buffered saline using Bullet blender. Fifty µL of brain homogenate or plasma and 200 µL of internal standard (IS) in vehicle (70 % acetonitrile and 30 % water) were mixed in a 96-well hydrophilic solvinert plate. The acetonitrile mixtures were vortexed and centrifuged at 10,000 rpm for 10 min. Supernatant was collected in a 96 well plate and analysed by liquid chromatography with mass spectroscopy (LC-MS, QTRAP ABSCIEX API 4000).
Analysis was carried out using 4000 QTRAP LC/MS/MS system with triple Quadruple mass spectrometer (AB SCIEX) equipped with an electron spray ionisation (ESI). The mass spectrometer was operated in the ESI positive ion mode and detection of ions were performed in the multiple reaction monitoring (MRM) mode.

For data set [4], the system named is P-gp. Also on record: method as in O’Brien et al. 2013. To be noted: P-gp inhibition using cyclosporin and verapamil; ref O’Brien et al. 2013; cited from earlier work.
For data set [5], the system named is P-gp. Also on record: method as in Van Asperen et al. 1996. To be noted: ref Van Asperen et al. 1996; cited from earlier work.

The structures appear in SMILES notation.

T1 sequence (P08183 whole entry): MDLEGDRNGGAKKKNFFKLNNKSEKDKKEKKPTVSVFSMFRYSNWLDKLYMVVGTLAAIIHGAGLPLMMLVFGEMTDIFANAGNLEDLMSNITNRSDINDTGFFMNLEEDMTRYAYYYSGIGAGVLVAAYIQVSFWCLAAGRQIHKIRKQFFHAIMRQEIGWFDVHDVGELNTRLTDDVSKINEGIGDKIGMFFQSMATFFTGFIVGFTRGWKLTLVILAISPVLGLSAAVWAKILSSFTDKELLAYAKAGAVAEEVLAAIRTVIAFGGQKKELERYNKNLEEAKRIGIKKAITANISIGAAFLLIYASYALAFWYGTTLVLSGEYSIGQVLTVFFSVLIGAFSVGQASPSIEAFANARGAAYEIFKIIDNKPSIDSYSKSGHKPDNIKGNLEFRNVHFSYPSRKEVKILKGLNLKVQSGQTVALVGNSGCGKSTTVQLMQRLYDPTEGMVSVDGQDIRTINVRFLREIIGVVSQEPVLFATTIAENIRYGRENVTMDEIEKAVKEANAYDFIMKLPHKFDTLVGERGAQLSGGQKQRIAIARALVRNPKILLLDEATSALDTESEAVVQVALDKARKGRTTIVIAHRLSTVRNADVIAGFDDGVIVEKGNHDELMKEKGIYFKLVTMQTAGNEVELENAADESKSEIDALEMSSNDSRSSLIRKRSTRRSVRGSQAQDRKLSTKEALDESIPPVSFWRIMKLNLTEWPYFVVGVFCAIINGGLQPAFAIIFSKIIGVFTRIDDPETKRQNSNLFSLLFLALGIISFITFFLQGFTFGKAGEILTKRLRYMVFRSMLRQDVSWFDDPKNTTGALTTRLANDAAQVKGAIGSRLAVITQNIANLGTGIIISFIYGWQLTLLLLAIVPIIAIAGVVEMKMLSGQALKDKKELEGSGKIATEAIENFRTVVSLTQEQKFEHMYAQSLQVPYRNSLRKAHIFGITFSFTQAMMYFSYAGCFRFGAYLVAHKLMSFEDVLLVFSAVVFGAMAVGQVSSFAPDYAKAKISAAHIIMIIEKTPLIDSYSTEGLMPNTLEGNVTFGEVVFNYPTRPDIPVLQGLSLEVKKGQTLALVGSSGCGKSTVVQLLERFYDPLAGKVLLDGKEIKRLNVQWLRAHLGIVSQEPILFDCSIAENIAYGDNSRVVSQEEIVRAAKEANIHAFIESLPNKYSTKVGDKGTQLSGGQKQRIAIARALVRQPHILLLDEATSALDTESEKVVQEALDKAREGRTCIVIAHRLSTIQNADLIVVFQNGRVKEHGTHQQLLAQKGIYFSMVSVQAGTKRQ

With `C[C@H]1O[C@@H](O[C@H]2[C@@H](O)C[C@H](O[C@H]3[C@@H](O)C[C@H](O[C@H]4CC[C@@]5(C)[C@H](CC[C@@H]6[C@@H]5C[C@@H](O)[C@]5(C)[C@@H](C7=CC(=O)OC7)CC[C@]65O)C4)O[C@@H]3C)O[C@@H]2C)C[C@H](O)[C@@H]1O` [Digoxin], on P-gp [1] (Caco-2 (Table 3)), the “AP-BL transport of digoxin” value is on record as 5.18 10^−8 cm/s and the “BL-AP transport of digoxin” value is 1.80 ×10⁻⁶ cm/s. On P-gp [1] (Caco-2 monolayers), the “AP-BL transport (PappA–B) of digoxin” value is 0.0518 ×10⁻⁶ cm/s and the “BL-AP transport (PappB–A) of digoxin” value was 1.8 ×10⁻⁶ cm/s. Besides, at P-gp [2], the Papp A→B at 10 µM is 0.0518 ×10⁻⁶ cm/s and the Papp B→A at 10 µM is 1.8 ×10⁻⁶ cm/s. The “Caco-2 Papp” value in the data set on Caco-2 is 1.1 ×10⁻⁶ cm/s.
With `COc1cc2c(cc1OC)CN(CCc1ccc(NC(=O)c3cccc4c(=O)c5cccc(OC)c5[nH]c34)cc1)CC2` [Elacridar], the “Effect of pre-treatment on plasma profile of quinidine” value with P-gp [3] (mice) is given as “no significant difference”.
In the case of `CN(C)CCC[C@@]1(c2ccc(F)cc2)OCc2cc(C#N)ccc21` [Escitalopram], the “Increase in brain concentration” value with P-gp [4] was “threefold”.
As to `O=c1c(O)c(-c2ccc(O)c(O)c2)oc2cc(O)cc(O)c12` [Quercetin], the “Increase in (AUC) 0–7h B/P of quinidine” value in the data set with P-gp [3] (mice, inhibitor pre-treatment) is on record as “twofold”. In the data set on P-gp [3] (mice), the “Effect of pre-treatment on plasma profile of quinidine” value is “no significant difference”.
Turning to `C=C[C@H]1C[N@@]2CC[C@H]1C[C@@H]2[C@@H](O)c1ccnc2ccc(OC)cc12` [Quinidine], in the data set with P-gp [3] (brain), the AUC(0-inf) stood at 251 ng·h/mL, the AUC(0-t) is 211 ng·h/mL, the highest concentration (Cmax) was found to be 115 ng/mL and the Tmax is 48 min. In the data set with P-gp [3] (plasma), the AUC(0-inf) worked out at 513 ng·h/mL, the exposure AUC(0-t) turned out to be 496 ng·h/mL, the Cmax turned out to be 209 ng/mL and the time to peak (Tmax) came out at 39.6 min.
As for `CC[C@]1(O)C[C@@H]2CN(CCc3c([nH]c4ccccc34)[C@@](C(=O)OC)(c3cc4c(cc3OC)N(C)[C@H]3[C@@](O)(C(=O)OC)[C@H](OC(C)=O)[C@]5(CC)C=CCN6CC[C@]43[C@@H]65)C2)C1` [vinblastine], the “Penetration into the brain, P-gp knockout mice compared with wild type control” value in the data set with P-gp [5] is reported as 7–46 folds.
